Results on 15 molecules are retold here after ChEMBL document CHEMBL4265922, “Synthesis and antiproliferative activity of 6,7-disubstituted-4-phenoxyquinoline derivatives bearing the 1,8-naphthyridin-2-one moiety” (Eur J Med Chem, 2018).

Each structure is given as a SMILES string.

Experiment [1] deals with A549. The experiment in a line: cells. The settings on record: Homo sapiens, A549, 72 h.
Description: Antiproliferative activity against human A549 cells after 72 hrs by MTT assay
The test system of experiment [2] is MCF7. The experiment can be described thus: cells. The settings on record: Homo sapiens, MCF7, 72 h.
Experiment [3] relates to HepG2. The experiment in a line: cells. The note with it: Homo sapiens, HepG2, 72 h.
The target of experiment [4] is Hepatocyte growth factor receptor (Homo sapiens, UniProt P08581). The experiment can be described thus: Inhibition of c-MET (unknown origin) using FAM-labeled peptide as substrate incubated for 10 mins followed by substrate addition by HTRF assay. Background: In TR-FRET formats the signal depends on donor and acceptor labels being close together.
Hepatocyte growth factor receptor, sequence (P08581 whole entry): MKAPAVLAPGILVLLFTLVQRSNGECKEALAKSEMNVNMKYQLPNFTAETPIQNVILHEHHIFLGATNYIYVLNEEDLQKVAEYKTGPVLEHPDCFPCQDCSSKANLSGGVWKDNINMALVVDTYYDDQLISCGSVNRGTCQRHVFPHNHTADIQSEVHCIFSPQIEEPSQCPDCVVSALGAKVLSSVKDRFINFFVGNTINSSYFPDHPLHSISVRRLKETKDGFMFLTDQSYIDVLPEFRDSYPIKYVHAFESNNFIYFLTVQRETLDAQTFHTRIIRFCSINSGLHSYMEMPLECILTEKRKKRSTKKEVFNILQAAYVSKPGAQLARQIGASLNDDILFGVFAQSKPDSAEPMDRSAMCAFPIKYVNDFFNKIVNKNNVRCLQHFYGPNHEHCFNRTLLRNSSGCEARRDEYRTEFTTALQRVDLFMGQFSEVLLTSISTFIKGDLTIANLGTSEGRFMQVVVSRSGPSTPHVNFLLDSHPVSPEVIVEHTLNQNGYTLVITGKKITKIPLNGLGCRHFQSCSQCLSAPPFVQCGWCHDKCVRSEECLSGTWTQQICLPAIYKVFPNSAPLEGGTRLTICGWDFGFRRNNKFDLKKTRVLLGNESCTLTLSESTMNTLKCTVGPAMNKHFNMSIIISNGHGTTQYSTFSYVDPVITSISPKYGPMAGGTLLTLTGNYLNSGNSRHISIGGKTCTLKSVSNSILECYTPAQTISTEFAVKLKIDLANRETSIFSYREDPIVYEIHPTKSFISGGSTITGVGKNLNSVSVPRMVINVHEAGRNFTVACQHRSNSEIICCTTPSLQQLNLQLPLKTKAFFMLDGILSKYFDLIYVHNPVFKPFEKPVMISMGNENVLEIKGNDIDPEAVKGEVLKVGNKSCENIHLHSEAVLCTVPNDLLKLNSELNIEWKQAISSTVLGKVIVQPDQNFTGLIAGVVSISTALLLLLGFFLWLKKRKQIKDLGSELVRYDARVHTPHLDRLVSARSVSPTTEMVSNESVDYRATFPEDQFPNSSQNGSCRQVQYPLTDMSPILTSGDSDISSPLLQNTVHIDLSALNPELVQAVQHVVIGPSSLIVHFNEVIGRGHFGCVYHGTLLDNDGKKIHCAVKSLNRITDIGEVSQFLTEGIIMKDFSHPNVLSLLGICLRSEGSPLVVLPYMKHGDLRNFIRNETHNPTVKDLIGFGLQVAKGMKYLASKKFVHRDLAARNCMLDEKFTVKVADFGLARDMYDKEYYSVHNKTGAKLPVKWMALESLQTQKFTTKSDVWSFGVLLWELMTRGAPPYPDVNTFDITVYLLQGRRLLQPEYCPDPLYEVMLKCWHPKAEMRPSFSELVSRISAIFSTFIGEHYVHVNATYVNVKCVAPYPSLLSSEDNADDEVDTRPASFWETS
The test system of experiment [5] is HepG2. The experiment in a line: Induction of apoptosis in human HepG2 cells assessed as early apoptotic cells at 0.5 uM after 48 hrs by Annexin V-FITC/PI staining based flow cytometry (reference value: 2.97%). It is filed as functional.
The test system of experiment [6] is HepG2. The experiment can be described thus: Induction of apoptosis in human HepG2 cells assessed as late apoptotic cells at 0.5 uM after 48 hrs by Annexin V-FITC/PI staining based flow cytometry (reference value: 3.53%). It is filed as functional. On the technique in general: In flow cytometry, cells or beads pass a laser one at a time.
The test system of experiment [7] is HepG2. The experiment can be described thus: Induction of apoptosis in human HepG2 cells assessed as necrotic cells at 0.5 uM after 48 hrs by Annexin V-FITC/PI staining based flow cytometry (reference value: 1.81%). It is filed as functional.
In experiment [8] the test system is HepG2. The experiment can be described thus: Induction of apoptosis in human HepG2 cells assessed as viable cells at 0.5 uM after 48 hrs by Annexin V-FITC/PI staining based flow cytometry (reference value: 91.69%). The settings on record: HepG2, 48 h, read-out: Activity. It is filed as functional.
Experiment [9] deals with T1, Receptor-type tyrosine-protein kinase FLT3 (Homo sapiens, UniProt P36888).
T1 sequence (P36888 whole entry): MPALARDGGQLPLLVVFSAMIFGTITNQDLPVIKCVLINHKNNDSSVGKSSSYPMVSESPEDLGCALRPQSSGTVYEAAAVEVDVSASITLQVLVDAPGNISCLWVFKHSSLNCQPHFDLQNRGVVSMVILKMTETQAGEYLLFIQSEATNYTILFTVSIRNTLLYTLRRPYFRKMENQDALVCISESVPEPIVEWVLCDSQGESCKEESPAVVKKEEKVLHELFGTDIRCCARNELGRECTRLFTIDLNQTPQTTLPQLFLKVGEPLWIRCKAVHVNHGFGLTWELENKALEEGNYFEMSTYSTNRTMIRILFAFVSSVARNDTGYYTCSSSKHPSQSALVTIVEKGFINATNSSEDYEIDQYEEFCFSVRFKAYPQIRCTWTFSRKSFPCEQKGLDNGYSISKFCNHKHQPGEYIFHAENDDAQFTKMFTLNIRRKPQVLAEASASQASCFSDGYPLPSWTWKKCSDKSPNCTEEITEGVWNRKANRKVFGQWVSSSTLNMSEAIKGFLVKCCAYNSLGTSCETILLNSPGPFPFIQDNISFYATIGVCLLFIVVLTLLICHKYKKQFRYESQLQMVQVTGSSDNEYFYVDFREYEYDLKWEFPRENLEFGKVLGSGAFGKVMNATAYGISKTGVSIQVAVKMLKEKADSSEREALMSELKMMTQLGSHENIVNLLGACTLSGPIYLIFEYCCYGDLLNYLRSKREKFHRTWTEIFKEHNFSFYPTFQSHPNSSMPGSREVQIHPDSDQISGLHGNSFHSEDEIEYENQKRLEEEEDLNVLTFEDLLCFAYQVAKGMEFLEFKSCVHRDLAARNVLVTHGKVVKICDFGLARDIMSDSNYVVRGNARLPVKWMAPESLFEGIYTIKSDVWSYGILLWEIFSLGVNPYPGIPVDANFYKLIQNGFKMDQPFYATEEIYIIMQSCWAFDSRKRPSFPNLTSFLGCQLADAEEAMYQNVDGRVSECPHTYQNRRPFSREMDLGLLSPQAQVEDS
The experiment can be described thus: Inhibition of FLT3 (unknown origin) using FAM-labeled peptide as substrate incubated for 10 mins followed by substrate addition by HTRF assay.

The target of experiment [10] is Platelet-derived growth factor receptor alpha (Homo sapiens, UniProt P16234). The experiment in a line: Inhibition of PDGFRalpha (unknown origin) using FAM-labeled peptide as substrate incubated for 10 mins followed by substrate addition by HTRF assay.
Platelet-derived growth factor receptor alpha, sequence (P16234 whole entry): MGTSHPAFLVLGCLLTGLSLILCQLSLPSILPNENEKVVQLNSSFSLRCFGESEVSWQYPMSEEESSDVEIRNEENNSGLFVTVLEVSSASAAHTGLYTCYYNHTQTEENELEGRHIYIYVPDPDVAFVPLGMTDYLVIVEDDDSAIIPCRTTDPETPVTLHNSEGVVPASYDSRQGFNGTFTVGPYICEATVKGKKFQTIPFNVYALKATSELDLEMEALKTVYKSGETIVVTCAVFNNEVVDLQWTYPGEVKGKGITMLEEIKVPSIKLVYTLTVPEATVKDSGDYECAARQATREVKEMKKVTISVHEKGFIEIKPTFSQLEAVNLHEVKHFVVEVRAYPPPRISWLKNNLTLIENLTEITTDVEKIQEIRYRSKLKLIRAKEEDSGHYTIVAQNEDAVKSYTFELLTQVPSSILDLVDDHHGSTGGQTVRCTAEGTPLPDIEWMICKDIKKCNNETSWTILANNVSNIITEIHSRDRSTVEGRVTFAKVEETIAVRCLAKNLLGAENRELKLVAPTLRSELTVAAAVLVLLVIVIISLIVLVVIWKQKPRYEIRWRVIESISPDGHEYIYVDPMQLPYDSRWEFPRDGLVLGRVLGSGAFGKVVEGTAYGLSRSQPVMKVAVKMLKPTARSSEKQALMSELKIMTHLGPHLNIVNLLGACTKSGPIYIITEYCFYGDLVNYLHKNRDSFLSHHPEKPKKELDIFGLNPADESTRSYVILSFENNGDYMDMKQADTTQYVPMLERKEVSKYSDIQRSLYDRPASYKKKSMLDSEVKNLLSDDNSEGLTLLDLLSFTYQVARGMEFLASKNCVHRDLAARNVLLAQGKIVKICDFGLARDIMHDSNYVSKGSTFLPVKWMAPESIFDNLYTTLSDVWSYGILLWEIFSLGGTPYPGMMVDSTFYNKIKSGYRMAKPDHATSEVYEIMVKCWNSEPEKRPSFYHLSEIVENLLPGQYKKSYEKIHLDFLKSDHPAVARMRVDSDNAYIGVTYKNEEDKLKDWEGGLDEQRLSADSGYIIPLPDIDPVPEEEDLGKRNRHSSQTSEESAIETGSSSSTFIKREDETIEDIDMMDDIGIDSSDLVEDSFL
The target of experiment [11] is ALK tyrosine kinase receptor (Homo sapiens, UniProt Q9UM73). The experiment in a line: Inhibition of ALK (unknown origin) using FAM-labeled peptide as substrate incubated for 10 mins followed by substrate addition by HTRF assay.
Experiment [12] deals with Vascular endothelial growth factor receptor 3 (Homo sapiens, UniProt P35916). The experiment can be described thus: Inhibition of FLT4 (unknown origin) using FAM-labeled peptide as substrate incubated for 10 mins followed by substrate addition by HTRF assay.
Vascular endothelial growth factor receptor 3, sequence (P35916 whole entry): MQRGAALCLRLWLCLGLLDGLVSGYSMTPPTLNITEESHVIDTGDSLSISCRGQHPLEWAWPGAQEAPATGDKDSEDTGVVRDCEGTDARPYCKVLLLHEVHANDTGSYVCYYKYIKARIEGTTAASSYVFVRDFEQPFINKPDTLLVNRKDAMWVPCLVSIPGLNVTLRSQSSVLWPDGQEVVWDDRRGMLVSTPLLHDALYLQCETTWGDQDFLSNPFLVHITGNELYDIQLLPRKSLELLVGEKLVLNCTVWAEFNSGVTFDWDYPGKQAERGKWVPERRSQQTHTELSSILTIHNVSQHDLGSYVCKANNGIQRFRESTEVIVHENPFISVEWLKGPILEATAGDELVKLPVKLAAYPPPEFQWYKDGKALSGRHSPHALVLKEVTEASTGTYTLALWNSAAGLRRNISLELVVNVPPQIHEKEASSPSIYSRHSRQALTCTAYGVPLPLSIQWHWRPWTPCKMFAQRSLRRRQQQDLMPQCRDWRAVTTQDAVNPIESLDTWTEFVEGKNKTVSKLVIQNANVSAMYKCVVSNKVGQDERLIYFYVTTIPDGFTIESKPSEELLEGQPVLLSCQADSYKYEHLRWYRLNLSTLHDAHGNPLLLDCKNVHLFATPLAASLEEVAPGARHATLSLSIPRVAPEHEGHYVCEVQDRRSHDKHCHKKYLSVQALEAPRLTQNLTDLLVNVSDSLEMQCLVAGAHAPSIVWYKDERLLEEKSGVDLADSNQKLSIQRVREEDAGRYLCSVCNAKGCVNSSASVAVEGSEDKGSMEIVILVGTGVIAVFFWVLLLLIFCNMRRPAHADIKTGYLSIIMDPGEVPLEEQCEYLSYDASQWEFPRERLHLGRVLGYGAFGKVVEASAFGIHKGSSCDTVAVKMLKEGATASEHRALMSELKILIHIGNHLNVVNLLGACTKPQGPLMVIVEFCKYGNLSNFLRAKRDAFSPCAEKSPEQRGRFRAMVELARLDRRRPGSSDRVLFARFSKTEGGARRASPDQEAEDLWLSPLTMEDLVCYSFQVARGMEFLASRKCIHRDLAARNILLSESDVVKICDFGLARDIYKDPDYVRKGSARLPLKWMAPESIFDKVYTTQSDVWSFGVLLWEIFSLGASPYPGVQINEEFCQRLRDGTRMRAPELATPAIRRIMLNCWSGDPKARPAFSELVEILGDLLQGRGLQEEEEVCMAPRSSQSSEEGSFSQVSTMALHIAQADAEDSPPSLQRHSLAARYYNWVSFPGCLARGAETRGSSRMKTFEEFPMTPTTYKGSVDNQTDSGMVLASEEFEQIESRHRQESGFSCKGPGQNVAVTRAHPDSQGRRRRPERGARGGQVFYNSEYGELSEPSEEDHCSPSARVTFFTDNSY
For experiment [13], the target named is Epidermal growth factor receptor (Homo sapiens, UniProt P00533). The experiment can be described thus: Inhibition of EGFR (unknown origin) using FAM-labeled peptide as substrate incubated for 10 mins followed by substrate addition by HTRF assay.
Epidermal growth factor receptor, sequence (P00533 whole entry): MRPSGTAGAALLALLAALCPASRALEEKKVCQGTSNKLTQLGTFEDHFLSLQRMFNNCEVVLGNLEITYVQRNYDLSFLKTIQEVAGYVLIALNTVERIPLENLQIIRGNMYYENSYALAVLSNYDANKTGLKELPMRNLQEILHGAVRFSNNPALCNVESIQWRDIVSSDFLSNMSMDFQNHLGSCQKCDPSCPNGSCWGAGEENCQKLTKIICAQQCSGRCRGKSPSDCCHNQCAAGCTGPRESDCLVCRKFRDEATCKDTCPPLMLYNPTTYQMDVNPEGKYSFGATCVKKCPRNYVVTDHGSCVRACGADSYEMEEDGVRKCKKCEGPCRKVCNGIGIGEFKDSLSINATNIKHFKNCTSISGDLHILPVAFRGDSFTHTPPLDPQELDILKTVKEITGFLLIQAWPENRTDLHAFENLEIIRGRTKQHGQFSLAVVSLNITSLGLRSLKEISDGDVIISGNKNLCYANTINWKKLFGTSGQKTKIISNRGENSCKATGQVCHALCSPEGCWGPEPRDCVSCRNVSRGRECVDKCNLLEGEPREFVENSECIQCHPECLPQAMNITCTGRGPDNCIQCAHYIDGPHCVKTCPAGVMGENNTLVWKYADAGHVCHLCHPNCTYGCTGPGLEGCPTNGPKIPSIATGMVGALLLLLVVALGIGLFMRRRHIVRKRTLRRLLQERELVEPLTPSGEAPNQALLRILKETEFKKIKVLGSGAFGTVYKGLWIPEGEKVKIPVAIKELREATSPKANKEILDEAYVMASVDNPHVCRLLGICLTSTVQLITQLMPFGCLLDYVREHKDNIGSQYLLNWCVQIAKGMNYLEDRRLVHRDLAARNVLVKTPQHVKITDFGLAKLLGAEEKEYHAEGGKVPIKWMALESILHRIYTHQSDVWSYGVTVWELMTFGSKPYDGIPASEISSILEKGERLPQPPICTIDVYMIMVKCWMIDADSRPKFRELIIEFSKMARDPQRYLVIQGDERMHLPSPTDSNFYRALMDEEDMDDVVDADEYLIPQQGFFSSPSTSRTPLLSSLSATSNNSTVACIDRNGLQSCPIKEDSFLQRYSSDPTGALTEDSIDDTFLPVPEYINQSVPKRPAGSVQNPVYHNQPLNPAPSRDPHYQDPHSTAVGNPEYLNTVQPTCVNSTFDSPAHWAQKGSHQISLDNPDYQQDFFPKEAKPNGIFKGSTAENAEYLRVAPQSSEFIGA
In experiment [14] the target is Platelet-derived growth factor receptor beta (Homo sapiens, UniProt P09619). The experiment in a line: Inhibition of PDGFRbeta (unknown origin) using FAM-labeled peptide as substrate incubated for 10 mins followed by substrate addition by HTRF assay.
Experiment [15] deals with Mast/stem cell growth factor receptor Kit (Homo sapiens, UniProt P10721). The experiment in a line: Inhibition of c-KIT (unknown origin) using FAM-labeled peptide as substrate incubated for 10 mins followed by substrate addition by HTRF assay.

Regarding `COc1ccc(-n2c(=O)c(C(=O)Nc3ccc(Oc4ccnc5cc(OCCCN6CCOCC6)c(OC)cc45)c(F)c3)cc3cccnc32)cc1`, the IC50 in experiment [1] worked out at 19500 nM; in experiment [2], 10500 nM; in [3] it was 9160 nM.

For the molecule `COc1cc2c(Oc3ccc(NC(=O)c4cc5cccnc5n(-c5ccc(Br)cc5F)c4=O)cc3F)ccnc2cc1OCCCN1CCN(C)CC1`, in experiment [4], the IC50 amounted to 6.41 nM.

For the molecule `COc1cc2c(Oc3ccc(NC(=O)C4(C(=O)Nc5ccc(F)cc5)CC4)cc3F)ccnc2cc1OCCCN1CCOCC1` [FORETINIB], the figures for the Activity in [5], in experiment [6] and in experiment [7] were 18.51%, 8.36% and 0.64%, respectively. For the same molecule, the viability at 0.5 µM in [8] was found to be 72.5%.

Molecule `COc1cc2c(Oc3ccc(NC(=O)c4cc5cccnc5n(-c5ccc(F)cc5)c4=O)cc3F)ccnc2cc1OCCCN1CCCCC1` showed an IC50 in experiment [4] of 2.86 nM.

In the case of `COc1cc2c(Oc3ccc(NC(=O)c4cc5cccnc5n(-c5ccc(F)cc5)c4=O)cc3F)ccnc2cc1OCCCN1CCOCC1`, the half-inhibitory concentration (IC50) in experiment [1] came out at 2410 nM; in experiment [4] it was 7.97 nM; in experiment [2], 1780 nM; in experiment [3], 760 nM.

Turning to `COc1cc2c(Oc3ccc(NC(=O)c4cc5cccnc5n(-c5ccc(Br)cc5F)c4=O)cc3F)ccnc2cc1OCCCN1CCC(C)CC1`, in [4], the IC50 stood at 38.3 nM.

As for `COc1cc2c(Oc3ccc(NC(=O)c4cc5cccnc5n(-c5ccc(C(F)(F)F)cc5Cl)c4=O)cc3F)ccnc2cc1OCCCN1CCOCC1`, the IC50 in experiment [1] came out at 4190 nM; in experiment [2] it was 9410 nM; in [3] it was 4170 nM.

For the molecule `COc1cc2c(Oc3ccc(NC(=O)c4cc5cccnc5n(-c5ccc(Br)cc5F)c4=O)cc3F)ccnc2cc1OCCCN1CCOCC1`, the half-maximal inhibitory concentration (IC50) in experiment [1] was above 40000 nM; in experiment [2], 9750 nM; in [3], above 40000 nM.

Take `COc1cc2c(Oc3ccc(NC(=O)c4cc5cccnc5n(-c5ccccc5)c4=O)cc3F)ccnc2cc1OCCCN1CCOCC1`: the IC50 in experiment [1] is 16800 nM; in experiment [2], above 40000 nM; in experiment [3], 11600 nM.

For `COc1cc2c(Oc3ccc(NC(=O)c4cc5cccnc5n(-c5ccc(Cl)cc5)c4=O)cc3F)ccnc2cc1OCCCN1CCOCC1`, the results for the IC50 in [1], in [2] and in [3] were 4230 nM, 3210 nM and above 40000 nM, respectively.

For `COc1cc2c(Oc3ccc(NC(=O)c4cc5cccnc5n(-c5ccc(F)cc5)c4=O)cc3F)ccnc2cc1OCCCN1CCN(C)CC1`, the IC50 in experiment [9] is 5.31 nM; in [10], 4.35 nM; in [11] it was 200 nM; in experiment [12], 183 nM; in experiment [4], 2.36 nM; in [13], above 10000 nM. Moreover, the figures for the IC50 in [14] and in experiment [15] were 19.5 nM and 10.1 nM, respectively.

Take `COc1cc2c(Oc3ccc(NC(=O)c4cc5cccnc5n(-c5ccc(Br)cc5)c4=O)cc3F)ccnc2cc1OCCCN1CCCCC1`: in experiment [4], the IC50 came to 29.2 nM.

Regarding `COc1cc2c(Oc3ccc(NC(=O)c4cc5cccnc5n(-c5ccc(Br)cc5)c4=O)cc3F)ccnc2cc1OCCCN1CCOCC1`, the IC50 was 4170 nM in experiment [1], 10.1 nM in experiment [4], 610 nM in experiment [2] and 1980 nM in experiment [3].

In the case of `COc1cc2c(Oc3ccc(NC(=O)c4cc5cccnc5n(-c5ccc(F)c(Cl)c5)c4=O)cc3F)ccnc2cc1OCCCN1CCOCC1`, the values for the half-maximal inhibitory concentration (IC50) in experiment [1], in [2] and in experiment [3] were above 40000 nM, 1120 nM and 9680 nM, respectively.

Molecule `COc1cc2c(Oc3ccc(NC(=O)c4cc5cccnc5n(-c5ccc(F)cc5)c4=O)cc3F)ccnc2cc1OCCCN1CCC(C)CC1` had an IC50 in experiment [4] of 31.8 nM.

The IC50 is the midpoint of a concentration-inhibition curve. A lower IC50 goes with greater potency in that assay.
